Results as given in patent US20030069166A1, “Stimulative agent and stimulative perfume composition” (Shiseido Co., Ltd., priority 1999, published 2003).

How the values were obtained:
[1] = system: Contingent Negative Variation (CNV), electric potential of the brain; assay: Contingent Negative Variation (CNV) measurement while inhaling the aroma sample; format: in vivo, human; conditions: for Stimulative or sedative effect by CNV (FIG. 1): 1% ethanol solution of each sample, 5 healthy adult women, over 100% of CNV = stimulative, less than 100% = sedative
Description: First of all, the test method of this invention is explained. The change of negative electric potential of brain called Contingent Negative Variation (CNV) was measured. CNV is the gradual fluctuation of electric potential of the brain. It is related to the fluctuation of the mental process and the conscious level such as an attention, expectation and anticipation.
An experiment to study perfume effects was as follows. After two seconds from a warning sound stimulation, a starting signal light of an exercise is turned on. Then, as soon as light is observed, the pushing button behavior is demanded as exercise reaction. In this series of steps, a sample of aroma is located at 10cm before nose tip. The aroma can be always recognized along with breathing. A recording electrode for the CNV measurement is fixed to the frontal region of the head. An electric potential between the frontal region and ear lobe is measured.
The fluctuation area of this section is expressed as comparative percentage (%) to 100% of blank (odorless stimulation). Also, aroma was presented in accordance with Latin square method.

[2] = system: Contingent Negative Variation (CNV), electric potential of the brain; conditions: administered drug; reported in the literature; cited from earlier work

SMILES | Stimulative or sedative effect by CNV (FIG. 1) [1] | Change of amplitude of CNV after administration [2] | also measured
COc1ccc(C=O)cc1 [anisaldehyde, p-methoxy benzaldehyde] | much stronger stimulative effect in comparison with conventional lemon oil | – | Effective amount of anisaldehyde in the perfume ingredients ([1]; concluded from Table 2 (anisaldehyde in anethole)): ≥ 1 wt %
Cn1c(=O)c2c(ncn2C)n(C)c1=O [caffeine] | – | increase of amplitude of CNV | –
COc1cc(C)cc(OC)c1 [DMB, 1,3-dimethoxy-5-methylbenzene] | sedative effect | – | –
CC=Cc1ccc(OC)cc1 [anethole] | – | – | Measured value of CNV ([1]; ethanol solution including 1 wt % of each sample, % relative to 100% of blank (odorless stimulation)): 108%
O=C1CN=C(c2ccccc2)c2cc([N+](=O)[O-])ccc2N1 [nitrazepam] | – | decrease of amplitude of CNV | –
